The values that follow come from US20220273765A1, “TOPICAL FORMULATION” (Follicum AB, priority 2019, published 2022).

The subject of data set [1] is C57BL/6 mice in stable telogen phase. Briefly: Hair growth promotion efficacy in C57BL/6 mouse model by topical route. Format: in vivo. To be noted: 5% solution, 50 μL/cm2 topically twice daily, 4 weeks + 1 week observation. The procedure:
C57Bl6 mice in stable telogen phase (age 6-9 weeks) were carefully clipped. Topical formulation of FOL-005 at three different strengths and placebo was applied at the clipped area once daily, 5 days per week until day 26. For comparison Minoxidil was administered to one group twice daily, 5 days per week until day 26.
The present study was conducted to evaluate the hair growth promotion efficacy of FOL-005 in C57BL/6 mouse model by topical route of administration. Male C57BL/6 mice in stable telogen phase (resting phase) of hair growth cycle were used. The hair on the dorsal back of the animals was clipped and the area was treated with FOL-005 topical formulation, placebo formulation or commercially available Minoxidil 5%.
Three formulations of FOL-005 (High dose—0.5%, Medium dose—0.05% and Low dose—0.005%) along with placebo were screened for hair growth promotion efficacy by applying 50 μL/cm2 on the dorsal clipped skin of animals in the respective groups. The application regimen was total of 4 weeks (5 days/week) followed by 1 week of observation period. […] After completion of observation period, it was observed that FOL-005 formulation led to hair growth promotion efficacy in a dose response manner. […] Visual melanogenesis was also observed in the peeled skin of 3/7 animals, 2/7 animals and 1/7 animal in the High, Medium and Low dose respectively. […]

A short description of data set [2]: Solubility of FOL-005 in vehicle excipients and artificial sebum (HPLC). It counts as physicochemical. The procedure:
The testing was performed by charging 0.1% (w/w) of FOL-005 together with 99.90% excipient. […] The mixtures were stirred with magnetic stirrer for 2 hours. If particles of FOL-005 remained, the mixture was centrifuged at 14000 rpm or 10000 rpm (artificial sebum) for 5 minutes and the supernatant was withdrawn for analysis. The concentration of FOL-005 was determined by HPLC analysis in all batches.

[3] abbreviates: sodium salt, in PBS buffer pH 7.4, room temperature.

Read-outs that look alike come from different tables or passages of the source. No end group written: not given here. Some results are limits rather than exact numbers.

On to `Nc1cc(N2CCCCC2)nc(N)[n+]1[O-]` [Minoxidil], for which, in data set [1], the “Anagen induction followed by hair growth” value is 4/5 and the “Visual melanogenesis in the peeled skin” value is 4/5.
Regarding VDTYDGDISVVYGLR [FOL-005], the solubility at 2 h in data set [2] (0.5% Cithrol in paraffin oil, sodium salt, in 0.5% Cithrol in paraffin oil, room temperature, read-out: FOL-005 solubility) is 10 µg/mL; in data set [2] (10% glucose in water, in 10% Glucose in water, room temperature, read-out: FOL-005 solubility), more than 1010 µg/mL; in data set [2] (10% mannitol in water, in 10% Mannitol in water, room temperature, read-out: FOL-005 solubility) it was more than 1040 µg/mL; in data set [2] (10% sucrose in water, in 10% Sucrose in water, room temperature, read-out: FOL-005 solubility) it was more than 1040 µg/mL; in data set [2] (30% glucose in water, in 30% Glucose in water, room temperature, read-out: FOL-005 solubility), more than 1070 µg/mL; in data set [2] (30% sucrose in water, in 30% Sucrose in water, room temperature, read-out: FOL-005 solubility), more than 1040 µg/mL. In addition, the solubility at 2 h in data set [2] (PBS buffer, pH 7.4, sodium salt, in PBS buffer pH 7.4, room temperature, read-out: FOL-005 solubility) was more than 1000 µg/mL; in data set [2] (artificial sebum, sodium salt, in artificial sebum, 37° C., read-out: FOL-005 solubility), 270 µg/mL; in data set [2] (lactic acid, in lactic acid, room temperature, read-out: FOL-005 solubility), more than 1170 µg/mL; in data set [2] (sugar solutions of glucose, mannitol and sucrose, sodium salt, sugar solutions of glucose, mannitol and sucrose, room temperature, read-out: solubility in sugar solutions), more than 1000 µg/mL. The “solubility of FOL-005 in 10% glucose solution” value in data set [2] (10% glucose solution) is given as “above 4.38 % (w/w)”. The Observation entry in data set [2] (in 10% Glucose in water, room temperature) is given as “soluble”; in data set [2] (in 10% Mannitol in water, room temperature), “soluble”; in data set [2] (in 10% Sucrose in water, room temperature) it was “soluble”; in data set [2] (in 30% Glucose in water, room temperature) it was “soluble”; in data set [2] (in 30% Sucrose in water, room temperature), “soluble”; in data set [2] (in lactic acid, room temperature), “soluble”. Besides, the Observation entry in data set [2] (setting [3]) is recorded as “soluble”. Further, the FOL-005 solubility in data set [2] (setting [3]) was more than 980 µg/mL.

By solubility is commonly meant the dissolved amount per volume that the medium holds.
